Measurements taken from ChEMBL document CHEMBL1158109, “Cytotoxic cis-fused bicyclic sesquiterpenoids from Jatropha neopauciflora” (J Nat Prod, 2006).

Tests used:
U-251 = assay: Cytotoxicity against human U251 cells after 48 hrs by SRB assay; format: functional, cell-based; conditions: U-251, 48 h
K562 = assay: Cytotoxicity against human K-562 cells after 48 hrs by SRB assay; format: functional, cell-based; conditions: K562, 48 h

Row | Compound | IC50 (U-251) | IC50 (K562)
1 | C=C(C)[C@@H]1CC[C@@]2(C)[C@H]1[C@H]1CC[C@@H]3[C@@]4(C)CC[C@H](OC(=O)/C=C/c5ccc(O)cc5)C(C)(C)[C@@H]4CC[C@@]3(C)[C@]1(C)C[C@@H]2O | 41 µM | 
2 | C=C(C)[C@@H]1CC[C@@]2(C)[C@H]1[C@H]1CCC3[C@@]4(C)CC[C@H](O)C(C)(C)[C@@H]4CC[C@@]3(C)[C@]1(C)C[C@@H]2O (stereo not given in full) [CALENDULADIOL] | 48.4 µM | 31.4 µM
3 | COc1cccc2c1C(=O)c1c(O)c3c(c(O)c1C2=O)C[C@@](O)(C(=O)CO)C[C@@H]3O[C@H]1C[C@H](N)[C@H](O)[C@H](C)O1 [DOXORUBICIN] | 0.32 µM | 0.28 µM
